The record followed here is patent US20250154138A1, “Small Molecule IL-17A Modulators” (BeiGene, Ltd., priority 2022, published 2025).

Read-outs that look alike come from different tables or passages of the source.

The target in experiment [1] is human IL-17A / human IL-17RA (Homo sapiens (Human), UniProt Q16552). Nature of the experiment: Human IL-17A biochemical assay (HTRF, blocking of IL-17A binding to IL-17RA). To be noted: 0.4 nM IL-17A, 0.3 nM IL-17RA, max compound concentration 10 uM. The procedure:
Compounds disclosed herein were tested for blocking of human IL-17A (Cat: C774, novoprotein) protein with its receptor human IL-17RA (Cat: C153, novoprotein) in an assay based on Homogeneous Time Resolved Fluorescence. 0.4 nM recombinant human IL-17A protein was pre-incubated with a serial dilution of compounds disclosed herein (maximum concentration is 10 uM, 2.7-fold serially diluted, 10 points) at room temperature for 3 hours in an assay buffer containing 20 mM HEPES, pH 7.5, 50 mM NaCl, 0.1% BSA, 0.2 mM DTT, 0.005% Tween 20. Then 0.3 nM recombinant human IL-17RA was added to plate and further incubated at room temperature for 1 hour. After that Mab Anti-6His Tb cryptate Gold (Cat: 61HI2TLB, Cisbio Bioassays) and MAb Anti Human IgG-XL665 (Cat: 61HFCXLB, Cisbio Bioassays) were added to plate and further incubated at room temperature for 1 hour. The HTRF signals (ex337 nm, em620 nm/665 nm) were read on BMG PHERAstar FSX instrument. The inhibition percentage of human IL-17A interaction with its receptor human IL-17RA in presence of increasing concentrations of compounds was calculated based on the ratio of […]. The IC50 for each compound was derived from fitting the data to the four-parameter logistic equation by Dotmatics.
A general note: Time-resolved FRET reads energy transfer from a long-lived donor to a nearby acceptor.

In experiment [2] the test system is IL-17-induced GROα secretion from HT-29 cells. The experiment in a line: GROα release assay in human colorectal adenocarcinoma epithelial cell (HT-29, ELISA). Type of experiment: cell-based. To be noted: 10 ng/mL IL-17A, highest concentration 10 μM, read-out: Cellular assay HT29 cell/CXCL1 IC50. The procedure:
The purpose of the assay is to test the ability of a compound to neutralize IL17A proteins. IL17 can stimulate human epithelial cells to secrete GROα. The ability of one compound of the invention to neutralize IL-17-induced GROα secretion from the human colorectal adenocarcinoma epithelia cell line HT-29 is tested in this assay.
HT-29 cells (human colorectal adenocarcinoma epithelia cell, ATCC) were stimulated with IL-17A (Novoprotein, #C774) in final concentration of 10 ng/mL. The resultant GROα response was measured using an ELISA kit from Invitrogen (#88-52122). HT-29 cells were cultured in complete medium (McCoy's 5A medium+10% FBS) and maintained in a tissue culture flask using standard techniques. On day 1, detached the cell by using TrypLE (Gibco, #12605036) and used the complete medium to neutralize. The cells were centrifuged at 11,00 rmp for 4 minutes. Re-suspended the cell pellet in complete medium and seeded 50,000 HT-29 cells into the 96-well assay plate (Corning, 3599) at 135 μL complete medium per well. The cells were incubated for overnight, at 37° C./5% CO2 to adherent the plate. On day 2, prepared a 4-fold serial dilution of the tested compound in DMSO. The highest concentration of the compound was 10 μM. Transferred 2 μL of the serial diluted compound from the serial dilution plate into the reagent plate which was contained 198 μL complete medium with 100 ng/mL IL-17A per well. The compounds were incubated with the IL-17A for 15 minutes. 15 μL mixtures from reagent plate were transferred into the cell assay plate. Incubated the plate at 37° C./5% CO2 for 48 hours. After the incubation, on day 4, GROα level were measured with GROα ELISA as the manufacturer's instructions. 50 μL supernatant was collected form the assay plate to ELISA plate. ELISA plate was read at 450 nm on a microplate reader and compared to a standard calibration curve.
Data were processed using GraphPad Prism. GROα concentration was calculated from the standard curve. IC50 was determined using the equation log concentration (inhibitor) against response and fitted to four parameters.

human IL-17A / human IL-17RA, sequence (Q16552 24-155): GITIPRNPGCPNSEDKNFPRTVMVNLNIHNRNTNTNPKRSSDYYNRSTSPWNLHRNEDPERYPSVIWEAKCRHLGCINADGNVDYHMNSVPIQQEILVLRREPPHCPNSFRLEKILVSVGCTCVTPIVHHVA

For the compound `CNC(=O)C1(N2CC(C)NC2=O)Cc2ccc(NC(=O)[C@@H](NC(=O)c3ccnn3C)C3CCCCC3)cc2C1` (stereo partly drawn) [Example 1, N-((1S)-1-cyclohexyl-2-((2-(4-methyl-2-oxoimidazolidin-1-yl)-2-(methylcarbamoyl)-2,3-dihydro-1H-inden-5-yl)amino)-2-oxoethyl)-1-methyl-1H-pyrazole-5-carboxamide], the IC50 in experiment [1] is 379 nM; in experiment [2] (Homo sapiens, HT-29, 48 h) it was 898 nM.

Consider `COCC1(N2CC(C)NC2=O)Cc2ccc(NC(=O)[C@@H](NC(=O)c3ccnn3C)C3CCCCC3)cc2C1` (stereo partly drawn) [Example 2, N-((1S)-1-cyclohexyl-2-((2-(methoxymethyl)-2-(4-methyl-2-oxoimidazolidin-1-yl)-2,3-dihydro-1H-inden-5-yl)amino)-2-oxoethyl)-1-methyl-1H-pyrazole-5-carboxamide], for which the IC50 amounted to 1100 nM in experiment [1] and 2560 nM in experiment [2] (Homo sapiens, HT-29, 48 h).

As for `CC1CN(C2Cc3ccc(NC(=O)[C@@H](NC(=O)c4ccnn4C)C4CCCCC4)cc3C2)C(=O)N1` (stereo partly drawn) [Example 3, N-((1S)-1-cyclohexyl-2-((2-(4-methyl-2-oxoimidazolidin-1-yl)-2,3-dihydro-1H-inden-5-yl)amino)-2-oxoethyl)-1-methyl-1H-pyrazole-5-carboxamide], the IC50 was 3190 nM in experiment [1] and 8430 nM in experiment [2] (Homo sapiens, HT-29, 48 h).

For `CNC(=O)C1(N2CC(C)NC2=O)Cc2cc3nc([C@@H](NC(=O)c4ccnn4C)C4CCCCC4)[nH]c3cc2C1` (stereo partly drawn) [Example 5, 2-((S)-cyclohexyl(1-methyl-1H-pyrazole-5-carboxamido)methyl)-N-methyl-6-(4-methyl-2-oxoimidazolidin-1-yl)-1,5,6,7-tetrahydroindeno[5,6-d]imidazole-6-carboxamide], the IC50 in experiment [1] amounted to 410 nM; in experiment [2] (Homo sapiens, HT-29, 48 h) it was 353 nM.

For the compound `CNC(=O)C1(N2CC(C)NC2=O)Cc2cc(NC(=O)[C@@H](NC(=O)c3ccnn3C)C3CCCCC3)sc2C1` (stereo partly drawn) [Example 9, N-((1S)-1-cyclohexyl-2-((5-(4-methyl-2-oxoimidazolidin-1-yl)-5-(methylcarbamoyl)-5,6-dihydro-4H-cyclopenta[b]thiophen-2-yl)amino)-2-oxoethyl)-1-methyl-1H-pyrazole-5-carboxamide], the IC50 in experiment [1] is 8000 nM; in experiment [2] (Homo sapiens, HT-29, 48 h), more than 10000 nM.

`CC1CN(Cc2cc3cc(NC(=O)[C@@H](NC(=O)c4ccnn4C)C4CCCCC4)ccc3o2)C(=O)N1` (stereo partly drawn) [Example 11, N-((1S)-1-cyclohexyl-2-((2-((4-methyl-2-oxoimidazolidin-1-yl)methyl)benzofuran-5-yl)amino)-2-oxoethyl)-1-methyl-1H-pyrazole-5-carboxamide]: the IC50 came to 1700 nM in experiment [1] and 6520 nM in experiment [2] (Homo sapiens, HT-29, 48 h).

`CC1CN(Cc2cc3cc(NC(=O)[C@@H](NC(=O)c4ccnn4C)C4CCCCC4)ccc3[nH]2)C(=O)N1` (stereo partly drawn) [Example 12, N-((1S)-1-cyclohexyl-2-((2-((4-methyl-2-oxoimidazolidin-1-yl)methyl)-1H-indol-5-yl)amino)-2-oxoethyl)-1-methyl-1H-pyrazole-5-carboxamide]: the IC50 in experiment [1] is 13000 nM; in experiment [2] (Homo sapiens, HT-29, 48 h), more than 10000 nM.

On to `COc1ccccc1NCC1(N2CC3(CC3)CNC2=O)Cc2ccc(NC(=O)[C@@H](NC(=O)c3ccnn3C)C3CCCCC3)cc2C1` (stereo partly drawn) [Example 173, N-((1S)-1-cyclohexyl-2-((2-(((2-methoxyphenyl)amino)methyl)-2-(6-oxo-5,7-diazaspiro[2.5]octan-5-yl)-2,3-dihydro-1H-inden-5-yl)amino)-2-oxoethyl)-1-methyl-1H-pyrazole-5-carboxamide], for which, in experiment [2] (Homo sapiens, HT-29, 48 h), the IC50 came out at 153 nM.

As for `Cc1nonc1C(=O)N[C@H](C(=O)Nc1ccc2c(c1)CC(N1C[C@@H](C(C)C)NC1=O)(C(C)(O)C(F)(F)F)C2)C(C1CC1)C1CC1` (stereo partly drawn) [Example 250, N-((2S)-1,1-dicyclopropyl-3-((2-((R)-4-isopropyl-2-oxoimidazolidin-1-yl)-2-(1,1,1-trifluoro-2-hydroxypropan-2-yl)-2,3-dihydro-1H-inden-5-yl)amino)-3-oxopropan-2-yl)-4-methyl-1,2,5-oxadiazole-3-carboxamide], the IC50 turned out to be 271 nM in experiment [2] (48 hours) and 190 nM in experiment [2] (Homo sapiens, HT-29, 48 h).
